Assay [1] concerns BB2-1 (-HINT) cell lysates. Kind of assay: 31P NMR phosphoramidase activity in cell lysates of hinT deletion strain. It is filed as biochemical, E. coli. The procedure: (§1) Phosphoramidase activity in cell lysates was measured by the ^1H-decoupling mode of phosphorus-31 NMR spectroscopy (Varian VAC-300 spectrometer), which can clearly distinguish the substrate, AMP-NH2, and the product, adenosine 5′-monophosphate (AMP). NMR spectrometry is suitable for quantitation by integration of the area under the peak, which is proportional to the amount of nuclei present. The relative ratio of peak areas can be used to calculate the amount of turnover corrected based on a standard curve.
Cell lysates from E. coli Tuner(DE3)pLacI cells (Novagen) were obtained by treatment with lysozyme (1 mg/ml) and the DNA was precipitated by protamine sulfate followed by centrifugation to remove cell debris. The supernatant was dialyzed extensively against Buffer A (20 mM Tris (pH 7.0); 1 mM EDTA; 1 mM DTT, 0.01 mM PMSF) to remove cellular phosphates and nucleotides. […] The reactions were terminated by snap freezing in a dry ice/acetone slush bath and lyophilized for 5 h. The samples were then dissolved in NMR buffer (600 μL, 50 mM EDTA, 20 mM HEPES (pH 7.2), and 1 mM TMP (trimethylphosphate, internal standard)) and the insoluble portion was spun down by centrifugation at 12,500×g for 5 min. A ^31P NMR spectrum was then collected for the supernatant. For the low pH control experiment, 10 mM AMP-NH2 in reaction buffer (500 μL, pH 2.0) was incubated at 37° C. for 12 h and the 31p signal was detected under the same conditions.
The E. coli hinT gene in strain BW25113 was disrupted as previously described (Datsenko & Wanner, 2000, PNAS USA, 97:6640-6645). Plasmid pKD3 and primers 7024 and 7025 (Table 2) were used for amplification of the chloramphenicol resistance marker (Cm^r). Stable chloramphenicol resistant transformants of BW25113 were tested by PCR with primers 7026 and 7027 to confirm correct recombination of the Cm^r marker into the hinT locus. A strain that tested positive by PCR was named BB1. Strain BB3 was constructed by removing the antibiotic resistance marker using Red recombinase as described previously (Datsenko & Wanner, supra). The hinT gene was amplified from the chromosomal DNA of E. coli strain BW25113 with primers 7328 and 7329. The product of this reaction was cloned into Bluescript SK+ using EcoRI and BamHI sites included in the primers' sequences. The resulting plasmid was named pB429. […] Plasmids pB432 and pB433 were obtained by cloning HindIII-EcoRI fragments containing wild type and H101A mutated alleles of hinT from plasmids pB429 and pB431 into plasmid pACYC184. All E. coli transformations were performed by electroporation.
To determine if E. coli hinT is solely responsible of the observed lysates' phosphoramidase activity, a mutant strain, BB1, in which the hinT gene was replace with the chloramphenicol resistance marker, was constructed. The phosphoramidase activities of the wild-type E. coli BL21 Star strain and the mutant strain lysates were determined (Table 3). […] (Table 2). Therefore, the adenosine phosphoramidase activity observed for E. coli cell lysates appears to be totally dependent on hinT.

In the next assay the target is T1, E. coli hinT-DHFR (Escherichia coli, UniProt P0ABQ4+P0ACE7).
T1 construct: made in house; host or cells: E. coli Tuner(DE3)pLacI
Kind of assay: 31P NMR phosphoramidase assay of purified protein. It is filed as biochemical. To be noted: 10 mM substrate, pH 7.2, 22° C. The procedure: as §1
(§2) Cell lysates from E. coli Tuner(DE3)pLacI cells (Novagen) were obtained by treatment with lysozyme (1 mg/ml) and the DNA was precipitated by protamine sulfate followed by centrifugation to remove cell debris. The supernatant was dialyzed extensively against Buffer A (20 mM Tris (pH 7.0); 1 mM EDTA; 1 mM DTT, 0.01 mM PMSF) to remove cellular phosphates and nucleotides. Phosphate free cell lysates (0.75 mg total protein) were incubated with 5 mM AMP-NH2 in 0.5 ml reaction buffer (0.5 mM MgCl2, 20 mM HEPES (pH 7.2)) at 37° C. for intervals of 15 min, 30 min, and 12 h. The reactions were terminated by snap freezing in a dry ice/acetone slush bath and lyophilized for 5 h. The samples were then dissolved in NMR buffer (600 μL, 50 mM EDTA, 20 mM HEPES (pH 7.2), and 1 mM TMP (trimethylphosphate, internal standard)) and the insoluble portion was spun down by centrifugation at 12,500×g for 5 min. A ^31P NMR spectrum was then collected for the supernatant. For the low pH control experiment, 10 mM AMP-NH2 in reaction buffer (500 μL, pH 2.0) was incubated at 37° C. for 12 h and the 31p signal was detected under the same conditions.
(§3) Five recombinant purified proteins were tested with three commercial available compounds (Sigma): AMP-NH2, adenosine 5′-monophosphomorpholidate (AMP-Mor), and guanosine 5′-monophosphomorpholidate (GMP-Mor) (FIG. 1). The compounds (10 mM) were incubated with proteins (2.5-10 μg) in the reaction buffer (500 μL, 0.5 mM MgCl2, 20 mM HEPES (pH 7.2)) at 22° C. for intervals of 36 and 66 min. The reactions were quenched by adding 5 M NaOH (20 μL), followed by snap freezing in a dry ice/acetone slush bath, and lyophilized. The sample preparation for ^31P NMR measurement was as described above for the cell-lysate experiment except that the pH was adjusted by the addition of 12 μL 6 M HCl before NMR spectra were collected.

In a further assay the target is T2, Human Hint1-DHFR (UniProt P0ABQ4+P49773).
T2 construct: made in house; host or cells: E. coli (following the procedure for the hinT plasmid)
Kind of assay: 31P NMR phosphoramidase assay of purified protein. Format: biochemical. The settings on record: 10 mM substrate, pH 7.2, 22° C. The procedure: as §1, §2, §3

The target in the next assay is T3, Rabbit HINT1 (Oryctolagus cuniculus, UniProt P80912).
T3 construct: made in house; host or cells: E. coli hinT deletion mutant
Kind of assay: 31P NMR phosphoramidase assay of purified protein. To be noted: 10 mM substrate, pH 7.2, 22° C. It is filed as biochemical. The procedure:
as §1, §2, §3

The next assay concerns the target hHINT1 (Homo sapiens, UniProt P49773). Kind of assay: 31P NMR phosphoramidase assay of purified protein. It is filed as biochemical. To be noted: 10 mM substrate, pH 7.2, 22° C. The procedure:
as §1, §2, §3

The target of the next assay is T4, E. coli hinT (Escherichia coli, UniProt P0ACE7).
T4 sequence (P0ACE7 1-119): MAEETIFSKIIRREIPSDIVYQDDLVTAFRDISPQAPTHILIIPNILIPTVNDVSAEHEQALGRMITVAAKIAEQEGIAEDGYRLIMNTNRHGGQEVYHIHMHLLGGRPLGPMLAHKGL
Kind of assay: 31P NMR phosphoramidase assay of purified protein. To be noted: 10 mM substrate, pH 7.2, 22° C. It is filed as biochemical. The procedure:
as §1, §2, §3

Consider `Nc1ncnc2c1ncn2[C@@H]1O[C@H](COP(N)(=O)O)[C@@H](O)[C@H]1O` [AMP-NH2, Adenosine 5′-monophosphoramidate], for which, in assay [1], the “AMP formation with lysates of hinT deletion strain BB1” value is on record as “no AMP formation could be observed”. Moreover, the “Specific activity” value in assay [1] (0.2 mg protein, 30 min) was determined as 0 nmol/mg/min; in assay [1] (0.5 mg protein, 30 min), 0 nmol/mg/min; in assay [1] (0.5 mg protein, 70 min), 0 nmol/mg/min; in assay [1] (0.5 mg protein, 1380 min) it was 0 nmol/mg/min; on E. coli hinT-DHFR it was 753 ± 2 nmol nmol^−1 min^−1; on Human Hint1-DHFR, 388 ± 45 nmol nmol^−1 min^−1. Further, the Specific activity at Rabbit HINT1 is on record as 70.0 ± 1.3 nmol nmol^−1 min^−1; at hHINT1 it was 196 ± 33 nmol nmol^−1 min^−1; on E. coli hinT, 526 ± 27 nmol nmol^−1 min^−1. For the same compound, the Average specific activity in assay [1] (average) turned out to be 0 nmol/mg/min.

Values taken from patent US20060014193A1, “Nucleoside phosphoramidates and nucleoside phosphoramidases” (priority 2004, published 2006).
